Source: publication PMC3231940, “Disposition, metabolism and mass balance of [^14C]apremilast following oral administration” (Xenobiotica; the Fate of Foreign Compounds in Biological …, 2011)
Read-outs that look alike come from different tables or passages of the source.

Assays:
[1] = test system: TNF-α production by human peripheral blood mononuclear cells; experiment: TNF-α production assay in LPS-stimulated PBMC; format: cell-based; settings: LPS 1 ng/mL, 16-18 h, ELISA
Method: PDE4 enzyme was isolated from U937 human monocytic cells and used for testing inhibition in a cAMP hydrolysis assay as previously described ([Schafer et al. 2010]). For the TNF-α production assay, human peripheral blood mono-nuclear cells (PBMC) were isolated from buffy coat of normal donor blood units (Blood Center of New Jersey, East Orange, NJ) by density centrifugation over Ficoll Hypaque (Pharmacia, Piscataway, NJ). Cells were cultured in RPMI 1640 (Life Technologies, Grand Island, NY) supplemented with 5% AB^+ human serum (Gemini Bio-products, Woodland, CA), 2-mM L-glutamine, 100-U/mL penicillin and 100-μg/mL streptomycin (Life Technologies). PBMC (2×10^5 cells) were plated in 96-well flat-bottom Costar tissue culture plates (Corning, NY) in duplicate. Cells were stimulated with lipopolysaccharides (LPS) (from Salmonella abortus equi; Sigma cat.no. L-1887, St.Louis, MO) at a final concentration of 1 ng/mL in the absence or presence of compounds. The compounds were dissolved in DMSO (Sigma) and subsequent dilutions were done in culture medium immediately before use. The compounds were added to cells 1 h before LPS stimulation. The cells were incubated for 16-18 h at 37°C in 5% CO2, and super-natants were then collected, diluted with culture medium and assayed for TNF-α levels by enzyme-linked immunosorbent assay (ThermoFisher, Rockford, IL). Fifty percent inhibitory concentrations (IC50) for the PDE4 enzymatic and TNF-α assay were calculated by non-linear regression analysis using Prism 5.1 (GraphPad Software). Regression curves were sigmoidal dose response curves with maximum and minimum constrained to 100% and 0%, respectively.

[2] = Apremilast in plasma by chiral LC/MS/MS, non-compartmental PK; format: in vivo, human
Method: Urine was collected pre-dose, 0-4, 4-8, 8-12, 12-24 and every 24 h thereafter up to 216h (9 days) following dose administration and was stabilized with one volume of pH 1.5 Sorensen's citrate buffer (25-mM sodium citrate buffer adjusted to pH 1.5). Individual faecal samples were collected pre-dose and for up to 9 days following dose administration, and homogenized using approximately three volumes by weight of pH 1.5 Sorensen's citrate buffer. Blood (two 5-mL samples for plasma radioactivity counting, a 3-mL sample for whole blood radioactivity counting, a 2-mL sample for apremilast analysis and a 10-mL sample for metabolite profiling) was collected into heparinized tubes at pre-dose, 0.5, 1, 1.5, 2, 2.5, 3, 4, 6, 8, 12, 16, 24, 36, 48, 72, 96, 120, 144 and 168 h following dose administration. Blood samples collected for radioactivity counting were stored at or below -20°C until analysed. Plasma was harvested by centrifugation from all other blood samples. The plasma samples for apremilast analysis and metabolite profiling were mixed with an equal volume of pH 1.5 Sorensen's citrate buffer containing 20-μM amastatin. All urine, faecal homogenates and plasma samples were stored at or below -20°C until analysed.
Plasma concentrations of apremilast were determined using a Chiral liquid chromatography with tandem mass spectrometry (LC/MS/MS) assay validated for concentrations between 1.00 and 1000ng/mL, with quality control (QC) samples prepared at 3.00, 50.0 and 750 ng/mL. Apremilast and (3S-cis)-(+)-tetrahydro-3,7a-diphenylpyrrolo[2, 1-b] oxazol-5(6H)-one (internal standard; IS) were extracted from 50 μL of plasma (stabilized with 50-μL Sorenson's citrate buffer) using liquid-liquid extraction with methyl tertiary butyl ether. The aqueous layer was frozen and the solvent layer was transferred to a new tube. The solvent was evaporated, the samples were reconstituted and injected for LC/MS/MS analysis using a Chiral AGP (150×4.0mm, 5 μm; Chrom Tech, Inc., Apple Valley, MN) analytical column. Positive ions were measured in the multiple reaction monitoring (MRM) mode using a Sciex API-4000 tandem mass spectrometer equipped with a Turbo IonSpray source with precursor→product ion pairs of 461.0→177.9 for apremilast and 280.1→160.3 for IS. For the QC samples, the accuracy ranged from 87.5% to 106.7%.
Pharmacokinetic data were generated by non-compartmental analysis of plasma or whole blood versus time profiles using WinNonlin (version 4.1, Enterprise Edition). For individual subjects, the peak concentration (Cmax), time to Cmax (Tmax), area under the concentration versus time curve from time zero to the last quantifiable concentration (AUC0-t), area under the concentration versus time curve from time zero to infinity (AUC0-∞ and the apparent terminal elimination half-life (t½) were determined. AUC0-t) and AUC0-∞ were calculated using the linear trapezoidal rule. AUC0-∞ was calculated as the sum of […], where Clast, is the last observed quantifiable concentration.

CCOc1cc([C@@H](CS(C)(=O)=O)N2C(=O)c3cccc(NC(C)=O)c3C2=O)ccc1OC [Apremilast, (+)-N-[2-[(lS)-1-(3-ethoxy-4-methoxyphenyl)-2-(methylsulfonyl)ethyl]-1,3-dioxo-2,3-dihydro-lH-isoindol-4-yl]acetamide]
IC50 [1]: 77 nM
Plasma t½ ([2]; chiral LC/MS/MS assay, single oral 20-mg dose, mean ± SD): 6.8 ± 2.6 h
half-life ([2]; male, human, plasma, po, 20 mg, chiral LC/MS/MS assay, single oral 20-mg dose, mean ± SD, read-out: Plasma t½ (converted)): ~7 h
AUC ([2]; male, human, plasma, po, 20 mg, single oral 20-mg dose, read-out: AUC determined via LC/MS): 1910 ± 339 ng·h/mL
AUC ([2]; male, human, plasma, po, 20 mg, single oral dose 20 mg, 100 uCi, read-out: Mean AUC0 in plasma): 1970 ng·h/mL
AUC(0-t) ([2]; male, human, plasma, chiral LC/MS/MS assay, single oral 20-mg dose, mean ± SD, read-out: Plasma AUC0-t): 1910 ± 339 ng·h/mL
AUC(0-inf) ([2]; male, human, plasma, chiral LC/MS/MS assay, single oral 20-mg dose, mean ± SD, read-out: Plasma AUC0-∞): 1970 ± 343 ng·h/mL
Tmax ([2]; male, human, plasma, chiral LC/MS/MS assay, single oral 20-mg dose, median and range): < 2 h
Cmax ([2]; male, human, plasma, single oral dose 20 mg, 100 uCi): 333 ng/mL
